Test results published in patent US11053213B2, “Pharmaceutical compounds” (ALMAC DISCOVERY LIMITED, priority 2016, dated 2021).

Target: USP19 (Homo sapiens (Human), UniProt O94966)
Assay: USP19 activity assay (fluorescence polarisation, Ubiquitin-Lys-TAMRA substrate)
Type: biochemical
Details: full-length USP19 2.5 nM, 30 min pre-incubation, Ub substrate 500 nM; average of at least two duplicate experiments
Procedure: Unless otherwise stated, all other reagents were purchased from Sigma. Enzymatic reactions were conducted in black flat bottom polystyrene 384-well plates (Nunc) and 30 μL total volume. […] Inhibitors were stored as 10 mM DMSO stocks in an inert environment (low humidity, dark, low oxygen, room temperature) using the Storage Pod System and serial dilutions were prepared in buffer just prior to the assay (from 200 μM to 2 pM, 8-18 data point curve). Following incubation at RT for 30 min, the enzymatic reactions were initiated by dispensing the Ub substrate (500 nM, 10 μL). FP was measured every 15 min over a period of 90 min (within the linear range of the assay) using a Synergy 4 plate reader (BioTek) exciting at 530 nm and measuring the amount of parallel and perpendicular light at 575 nm. The FP signal was subsequently normalised to the no compound control.

Chain of USP19 (O94966 whole entry): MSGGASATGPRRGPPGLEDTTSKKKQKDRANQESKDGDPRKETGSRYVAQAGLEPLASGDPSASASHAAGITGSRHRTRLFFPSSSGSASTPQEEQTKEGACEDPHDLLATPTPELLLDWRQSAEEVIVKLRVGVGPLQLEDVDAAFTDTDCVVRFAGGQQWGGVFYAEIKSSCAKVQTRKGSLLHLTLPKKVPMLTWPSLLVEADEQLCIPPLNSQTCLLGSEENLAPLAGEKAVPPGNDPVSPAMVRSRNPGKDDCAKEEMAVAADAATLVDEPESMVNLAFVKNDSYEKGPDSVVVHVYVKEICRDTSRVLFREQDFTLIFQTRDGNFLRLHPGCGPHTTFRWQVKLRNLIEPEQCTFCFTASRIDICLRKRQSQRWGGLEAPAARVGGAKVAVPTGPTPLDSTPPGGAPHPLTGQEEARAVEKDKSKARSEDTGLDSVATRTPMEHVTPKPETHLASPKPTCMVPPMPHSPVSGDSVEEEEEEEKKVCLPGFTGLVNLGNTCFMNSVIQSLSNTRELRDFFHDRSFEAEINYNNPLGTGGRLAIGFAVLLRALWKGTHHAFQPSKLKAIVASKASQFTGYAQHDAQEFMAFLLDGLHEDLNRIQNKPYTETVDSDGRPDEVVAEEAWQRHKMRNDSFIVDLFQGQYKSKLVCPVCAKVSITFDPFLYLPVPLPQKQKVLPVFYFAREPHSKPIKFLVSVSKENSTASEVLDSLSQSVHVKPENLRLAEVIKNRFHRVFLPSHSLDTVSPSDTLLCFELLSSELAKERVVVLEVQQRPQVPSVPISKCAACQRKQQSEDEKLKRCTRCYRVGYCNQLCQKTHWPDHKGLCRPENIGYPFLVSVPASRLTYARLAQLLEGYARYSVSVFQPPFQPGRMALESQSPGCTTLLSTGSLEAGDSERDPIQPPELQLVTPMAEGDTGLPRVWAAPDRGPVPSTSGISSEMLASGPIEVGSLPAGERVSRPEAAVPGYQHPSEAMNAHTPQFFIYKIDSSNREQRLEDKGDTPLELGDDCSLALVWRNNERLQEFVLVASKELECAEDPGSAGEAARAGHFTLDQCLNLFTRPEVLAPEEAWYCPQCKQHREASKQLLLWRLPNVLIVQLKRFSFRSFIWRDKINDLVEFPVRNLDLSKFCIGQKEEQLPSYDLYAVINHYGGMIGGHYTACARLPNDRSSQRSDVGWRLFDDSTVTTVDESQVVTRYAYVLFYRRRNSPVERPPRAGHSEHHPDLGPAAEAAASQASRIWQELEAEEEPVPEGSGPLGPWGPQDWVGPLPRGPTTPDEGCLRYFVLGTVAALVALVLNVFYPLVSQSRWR

| SMILES | IC50 [µM] |
| --- | --- |
| CCC1(C(=O)N2CCC(O)(Cn3cnc(-c4ccccc4F)cc3=O)CC2)CCCCC1 [Example 24, 3-((1-(1-Ethylcyclohexane-1-carbonyl)-4-hydroxypiperidin-4-yl)methyl)-6-(2-fluorophenyl)pyrimidin-4(3H)-one] | 5 to 50 |
| CCCCC(CC)C(=O)N1CCC(O)(Cn2cc(C(=O)N(C)C(C)C)c(-c3ccccc3)cc2=O)CC1 (racemic) [Example 80, (R,S)-1-((1-(2-Ethylhexanoyl)-4-hydroxypiperidin-4-yl)methyl)-N-isopropyl-N-methyl-6-oxo-4-phenyl-1,6-dihydropyridine-3-carboxamide] | 5 to 50 |
| C[C@H](CC1CC1)C(=O)N1CCC(O)(Cn2cc(C(=O)N(C)C)c(-c3ccccc3)cc2=O)C(C)(C)C1 (stereo partly drawn) [Example 129, 1-((1-((R)-3-Cyclopropyl-2-methylpropanoyl)-4-hydroxy-3,3-dimethylpiperidin-4-yl)methyl)-N,N-dimethyl-6-oxo-4-phenyl-1,6-dihydropyridine-3-carboxamide] | 5 to 50 |
| C[C@H](CC(=O)N1CCC(O)(Cn2cnc(-c3ccsc3)cc2=O)CC1)c1ccccc1 [Example 22, (R)-3-((4-Hydroxy-1-(3-phenylbutanoyl)piperidin-4-yl)methyl)-6-(thiophen-3-yl)pyrimidin-4(3H)-one] | 5 to 50 |
| C[C@H](CC1CCCCC1)C(=O)N1CCC(O)(Cn2cc(C(=O)N(C)C)c(-c3ccccc3CN)cc2=O)C2(CCCC2)C1 (stereo partly drawn) [Example 161, 4-(2-(Aminomethyl)phenyl)-1-((7-((R)-3-cyclohexyl-2-methylpropanoyl)-10-hydroxy-7-azaspiro[4.5]decan-10-yl)methyl)-N,N-dimethyl-6-oxo-1,6-dihydropyridine-3-carboxamide] | 5 to 50 |
| C[C@H](CC(=O)N1CCC(O)(Cn2cnc(-c3ccccc3F)cc2=O)CC1)c1ccccc1 [Example 32, (R)-6-(2-Fluorophenyl)-3-((4-hydroxy-1-(3-phenylbutanoyl)piperidin-4-yl)methyl)pyrimidin-4(3H)-one] | 5 to 50 |
| CN(C)C(=O)c1cn(CC2(O)CCN(C(=O)C[C@@H](c3ccccc3)C(F)F)CC23CCCC3)c(=O)cc1-c1ccccc1 (stereo partly drawn) [Example 180, 1-((7-((S)-4,4-Difluoro-3-phenylbutanoyl)-10-hydroxy-7-azaspiro[4.5]decan-10-yl)methyl)-N,N-dimethyl-6-oxo-4-phenyl-1,6-dihydropyridine-3-carboxamide] | 5 to 50 |
| C[C@H](CC(F)(F)F)C(=O)N1CC[C@@](O)(Cn2cc(C(=O)N3CCNCC3)c(-c3ccccc3F)cc2=O)C2(CCCC2)C1 [Example 225, 4-(2-Fluorophenyl)-1-(((S)-10-hydroxy-7-((R)-4,4,4-trifluoro-2-methylbutanoyl)-7-azaspiro[4.5]decan-10-yl)methyl)-5-(piperazine-1-carbonyl)pyridin-2(1H)-one] | 0.5 to 5 |
| CC(C)N(C)C(=O)c1cn(CC2(O)CCN(C(=O)C3(C)CCCC3)CC2)c(=O)cc1-c1ccccc1F [Example 23, 4-(2-Fluorophenyl)-1-((4-hydroxy-1-(1-methylcyclopentane-1-carbonyl)piperidin-4-yl)methyl)-N-isopropyl-N-methyl-6-oxo-1,6-dihydropyridine-3-carboxamide] | 5 to 50 |
| C[C@H](CC(=O)N1CCC(O)(Cn2cnc(-c3cccc4cnn(C)c34)cc2=O)CC1)c1ccccc1 [Example 16, (R)-3-((4-Hydroxy-1-(3-phenylbutanoyl)piperidin-4-yl)methyl)-6-(1-methyl-1H-indazol-7-yl)pyrimidin-4(3H)-one] | 5 to 50 |
| C[C@H](CC(=O)N1CCC(O)(Cn2cc(-c3ccccc3)c(-c3ccccc3)cc2=O)CC1)c1ccccc1 [Example 98, (R)-1-((4-Hydroxy-1-(3-phenylbutanoyl)piperidin-4-yl)methyl)-4,5-diphenylpyridin-2(1H)-one] | 5 to 50 |
| O=C(CCC1CCC1)N1CCC(O)(Cn2cnc(-c3ccccc3F)cc2=O)CC1 [Example 3, 3-((1-(3-Cyclobutylpropanoyl)-4-hydroxypiperidin-4-yl)methyl)-6-(2-fluorophenyl)pyrimidin-4(3H)-one] | 50 to 250 |
| C[C@H](CC(=O)N1CCC(O)(Cn2cc(C(=O)N3CCC[C@@H]3C)c(-c3ccccc3)cc2=O)CC1)c1ccccc1 [Example 116, 1-((4-Hydroxy-1-((R)-3-phenylbutanoyl)piperidin-4-yl)methyl)-5-((S)-2-methylpyrrolidine-1-carbonyl)-4-phenylpyridin-2(1H)-one] | 0.5 to 5 |
| COc1cc(=O)n(CC2(O)CCN(C(=O)[C@H](C)CC3CCCCC3)CC23CCCC3)cc1C(=O)N(C)C (stereo partly drawn) [Example 242, 1-((7-((R)-3-Cyclohexyl-2-methylpropanoyl)-10-hydroxy-7-azaspiro[4.5]decan-10-yl)methyl)-4-methoxy-N,N-dimethyl-6-oxo-1,6-dihydropyridine-3-carboxamide] | 0.5 to 5 |
| CC(C)CNc1cc(=O)n(CC2(O)CCN(C(=O)C[C@@H](C)c3ccccc3)CC2)cn1 [Example 35, (R)-3-((4-Hydroxy-1-(3-phenylbutanoyl)piperidin-4-yl)methyl)-6-(isobutylamino)pyrimidin-4(3H)-one] | 50 to 250 |
| O=C(CCc1ccc(F)cc1)N1CCC(O)(Cn2cnc(-c3ccccc3F)cc2=O)CC1 [Example 82, 6-(2-Fluorophenyl)-3-((1-(3-(4-fluorophenyl)propanoyl)-4-hydroxypiperidin-4-yl)methyl)pyrimidin-4(3H)-one] | 50 to 250 |

Next, values leading:

| IC50 [µM] | SMILES |
| --- | --- |
| < 0.5 | C[C@H](CC1CCCCC1)C(=O)N1CCC(O)(Cn2cnc(-c3cccc(CO)c3)cc2=O)C(C)(C)C1 (stereo partly drawn) [Example 138, 3-((1-((R)-3-Cyclohexyl-2-methylpropanoyl)-4-hydroxy-3,3-dimethylpiperidin-4-yl)methyl)-6-(3-(hydroxymethyl)phenyl)pyrimidin-4(3H)-one] |
| < 0.5 | C[C@H](CC1CCCCC1)C(=O)N1CC[C@@](O)(Cn2cc(C(=O)N3CCCC3)c(-c3ccccc3)cc2=O)C(C)(C)C1 [Example 123, 1-(((S)-1-((R)-3-Cyclohexyl-2-methylpropanoyl)-4-hydroxy-3,3-dimethylpiperidin-4-yl)methyl)-4-phenyl-5-(pyrrolidine-1-carbonyl)pyridin-2(1H)-one] |
| < 0.5 | C[C@H](CC1CCCCC1)C(=O)N1CC[C@@](O)(Cn2cc(C(=O)N(C)C)c(C3CC3)cc2=O)C2(CCCC2)C1 [Example 232, 1-(((S)-7-((R)-3-Cyclohexyl-2-methylpropanoyl)-10-hydroxy-7-azaspiro[4.5]decan-10-yl)methyl)-4-cyclopropyl-N,N-dimethyl-6-oxo-1,6-dihydropyridine-3-carboxamide] |
| < 0.5 | C[C@H](CC1CCCCC1)C(=O)N1CC[C@@](O)(Cn2cc(C(=O)N(C)C)c(-c3ccccc3F)cc2=O)C2(CCCC2)C1 [Example 226, 1-(((S)-7-((R)-3-Cyclohexyl-2-methylpropanoyl)-10-hydroxy-7-azaspiro[4.5]decan-10-yl)methyl)-4-(2-fluorophenyl)-N,N-dimethyl-6-oxo-1,6-dihydropyridine-3-carboxamide] |
| 0.5 to 5 | CC1(C)CN(C(=O)CCC2CCCCC2)CCC1(O)Cn1cnc(-c2ccccc2F)cc1=O (racemic) [Example 78, (R,S)-3-((1-(3-Cyclohexylpropanoyl)-4-hydroxy-3,3-dimethylpiperidin-4-yl)methyl)-6-(2-fluorophenyl)pyrimidin-4(3H)-one] |
| 0.5 to 5 | CC(C)N(C)C(=O)c1cn(CC2(O)CCN(C(=O)CCC3CCC3)CC2(C)C)c(=O)cc1-c1ccccc1 (racemic) [Example 79, (R,S)-1-((1-(3-Cyclobutylpropanoyl)-4-hydroxy-3,3-dimethylpiperidin-4-yl)methyl)-N-isopropyl-N-methyl-6-oxo-4-phenyl-1,6-dihydropyridine-3-carboxamide] |
| < 0.5 | C[C@H](CC(F)(F)F)C(=O)N1CC[C@@](O)(Cn2cc(C(=O)N(C)C)c(-c3ccccc3)cc2=O)C2(CCCC2)C1 [Example 216, 1-(((S)-10-Hydroxy-7-((R)-4,4,4-trifluoro-2-methylbutanoyl)-7-azaspiro[4.5]decan-10-yl)methyl)-N,N-dimethyl-6-oxo-4-phenyl-1,6-dihydropyridine-3-carboxamide] |
| < 0.5 | C[C@H](CC1CCCCC1)C(=O)N1CC[C@@](O)(Cn2cc(C(=O)N3CCNCC3)c(-c3ccccc3F)cc2=O)C(C)(C)C1 [Example 206, 1-(((S)-1-((R)-3-Cyclohexyl-2-methylpropanoyl)-4-hydroxy-3,3-dimethylpiperidin-4-yl)methyl)-4-(2-fluorophenyl)-5-(piperazine-1-carbonyl)pyridin-2(1H)-one] |
| < 0.5 | C[C@H](CC1CCCCC1)C(=O)N1CC[C@@](O)(Cn2cc(C(=O)O)c(-c3ccccc3)cc2=O)C2(CCCC2)C1 [Example 253, 1-(((S)-7-((R)-3-Cyclohexyl-2-methylpropanoyl)-10-hydroxy-7-azaspiro[4.5]decan-10-yl)methyl)-6-oxo-4-phenyl-1,6-dihydropyridine-3-carboxylic acid] |
| < 0.5 | O=C(c1cn(C[C@]2(O)CCN(C(=O)[C@H](CO)CC(F)(F)F)CC23CCCC3)c(=O)cc1-c1ccccc1)N1CCOCC1 [Example 248, 1-(((S)-10-Hydroxy-7-((S)-4,4,4-trifluoro-2-(hydroxymethyl)butanoyl)-7-azaspiro[4.5]decan-10-yl)methyl)-5-(morpholine-4-carbonyl)-4-phenylpyridin-2(1H)-one] |
| < 0.5 | C[C@H](CC1CCCCC1)C(=O)N1CC[C@@](O)(Cn2cc(C(=O)N(C)C)c(-c3ccccc3)cc2=O)C(C)(C)C1 [Example 121, 1-(((S)-1-((R)-3-Cyclohexyl-2-methylpropanoyl)-4-hydroxy-3,3-dimethylpiperidin-4-yl)methyl)-N,N-dimethyl-6-oxo-4-phenyl-1,6-dihydropyridine-3-carboxamide] |
